Key:
Kv1.5 = target: T1, Kv1.5 (Homo sapiens, UniProt P22460); assay: Whole-cell patch clamp in human atrial myocytes: Kv1.5 current calculated from Isus; type: cell-based
T1 construct: endogenous in cells; host or cells: freshly isolated human atrial myocytes
Protocol: (§1) The blocking profile of the compounds of the invention is determined on the following channels of the human atrial myocytes: INa, Ito, Isus and IK1 channel currents.
Human atrial myocytes: Myocytes were prepared from specimens with grossly normal anatomical aspect, excised from hearts of patients with normal P-wave electrocardiogram, undergoing bypass surgery. Human atrial sample were obtained following approval by the ethical committee. […]
(§2) Experiments were performed at room temperature (20-25° C.) for INa and at 32-34° C. for Ito, Isus, IK1. Currents were measured using the whole-cell variant of the patch clamp method. […]
After rupture of the cell membrane to enter the whole-cell mode, current amplitude and kinetics were allowed to stabilize for 3-7 min before initiating the experimental procedure. K^+ currents recorded from human atrial myocytes were elicited by a 500 ms pulse to +60 mV from a holding potential of −50 mV for Ito and Isus. Ito was measured as a peak current amplitude whereas Isus as a current present at the end of the 500 ms voltage pulse. In addition, the area under the curve, before and after compound, were measured over the course of the pulse period. […]

INa (SCN5a) = target: T2, INa (SCN5a) (Homo sapiens, UniProt Q14524); assay: Whole-cell patch clamp in human atrial myocytes: INa; type: cell-based; conditions: n = 3 cells
T2 construct: endogenous in cells; host or cells: freshly isolated human atrial myocytes (bypass-surgery patients)
Protocol: as §1
Human atrial myocytes: Myocytes were prepared from specimens with grossly normal anatomical aspect, excised from hearts of patients with normal P-wave electrocardiogram, undergoing bypass surgery. Human atrial sample were obtained following approval by the ethical committee. Atrial tissue samples were quickly immersed in a cardioplegic solution (in mM: 50 KH2PO4, 8 MgSO4, 10 NaHCO3, 5 adenosine, 25 taurine, 140 glucose, and 100 mannitol, titrated to a pH of 7.4 and bubbled with 100% O2 at 0-4° C.) and rapidly delivered to the laboratory. The tissue was then minced onto 0.5-1 mm^2 chunks within 30 min after the excision procedure and transferred to a 50 ml conical tube containing wash solution deprived of Ca^2+ (in mM: 137 NaCl, KH2PO4, 1 MgSO4, 10 taurine, 10 glucose, 5 HEPES, and 100 μmol/L (µM) EGTA; pH=7.4, room temperature 22-24° C.). […]
as §2
Raw data and mean ±SEM are given. […] This is measured as current reduction after a steady-state effect has been reached in the presence of drug relative to current amplitude before drug was introduced (control). […]

T1 sequence (P22460 whole entry): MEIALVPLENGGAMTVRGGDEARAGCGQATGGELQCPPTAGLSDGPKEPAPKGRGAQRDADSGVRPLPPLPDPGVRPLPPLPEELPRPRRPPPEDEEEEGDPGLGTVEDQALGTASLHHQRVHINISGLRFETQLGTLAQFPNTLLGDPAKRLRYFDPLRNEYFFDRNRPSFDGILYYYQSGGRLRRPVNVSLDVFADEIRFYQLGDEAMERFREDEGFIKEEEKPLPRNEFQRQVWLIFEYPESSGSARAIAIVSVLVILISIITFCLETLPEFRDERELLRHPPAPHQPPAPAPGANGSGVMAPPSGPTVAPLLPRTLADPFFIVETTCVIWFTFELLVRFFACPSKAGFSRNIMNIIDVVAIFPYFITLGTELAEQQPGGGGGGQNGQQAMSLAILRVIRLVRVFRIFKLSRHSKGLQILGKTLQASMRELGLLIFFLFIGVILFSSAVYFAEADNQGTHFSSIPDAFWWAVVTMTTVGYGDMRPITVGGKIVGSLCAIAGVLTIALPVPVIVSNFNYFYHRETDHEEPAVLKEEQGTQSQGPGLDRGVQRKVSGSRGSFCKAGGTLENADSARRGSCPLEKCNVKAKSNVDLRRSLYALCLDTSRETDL
T2 sequence (Q14524 whole entry): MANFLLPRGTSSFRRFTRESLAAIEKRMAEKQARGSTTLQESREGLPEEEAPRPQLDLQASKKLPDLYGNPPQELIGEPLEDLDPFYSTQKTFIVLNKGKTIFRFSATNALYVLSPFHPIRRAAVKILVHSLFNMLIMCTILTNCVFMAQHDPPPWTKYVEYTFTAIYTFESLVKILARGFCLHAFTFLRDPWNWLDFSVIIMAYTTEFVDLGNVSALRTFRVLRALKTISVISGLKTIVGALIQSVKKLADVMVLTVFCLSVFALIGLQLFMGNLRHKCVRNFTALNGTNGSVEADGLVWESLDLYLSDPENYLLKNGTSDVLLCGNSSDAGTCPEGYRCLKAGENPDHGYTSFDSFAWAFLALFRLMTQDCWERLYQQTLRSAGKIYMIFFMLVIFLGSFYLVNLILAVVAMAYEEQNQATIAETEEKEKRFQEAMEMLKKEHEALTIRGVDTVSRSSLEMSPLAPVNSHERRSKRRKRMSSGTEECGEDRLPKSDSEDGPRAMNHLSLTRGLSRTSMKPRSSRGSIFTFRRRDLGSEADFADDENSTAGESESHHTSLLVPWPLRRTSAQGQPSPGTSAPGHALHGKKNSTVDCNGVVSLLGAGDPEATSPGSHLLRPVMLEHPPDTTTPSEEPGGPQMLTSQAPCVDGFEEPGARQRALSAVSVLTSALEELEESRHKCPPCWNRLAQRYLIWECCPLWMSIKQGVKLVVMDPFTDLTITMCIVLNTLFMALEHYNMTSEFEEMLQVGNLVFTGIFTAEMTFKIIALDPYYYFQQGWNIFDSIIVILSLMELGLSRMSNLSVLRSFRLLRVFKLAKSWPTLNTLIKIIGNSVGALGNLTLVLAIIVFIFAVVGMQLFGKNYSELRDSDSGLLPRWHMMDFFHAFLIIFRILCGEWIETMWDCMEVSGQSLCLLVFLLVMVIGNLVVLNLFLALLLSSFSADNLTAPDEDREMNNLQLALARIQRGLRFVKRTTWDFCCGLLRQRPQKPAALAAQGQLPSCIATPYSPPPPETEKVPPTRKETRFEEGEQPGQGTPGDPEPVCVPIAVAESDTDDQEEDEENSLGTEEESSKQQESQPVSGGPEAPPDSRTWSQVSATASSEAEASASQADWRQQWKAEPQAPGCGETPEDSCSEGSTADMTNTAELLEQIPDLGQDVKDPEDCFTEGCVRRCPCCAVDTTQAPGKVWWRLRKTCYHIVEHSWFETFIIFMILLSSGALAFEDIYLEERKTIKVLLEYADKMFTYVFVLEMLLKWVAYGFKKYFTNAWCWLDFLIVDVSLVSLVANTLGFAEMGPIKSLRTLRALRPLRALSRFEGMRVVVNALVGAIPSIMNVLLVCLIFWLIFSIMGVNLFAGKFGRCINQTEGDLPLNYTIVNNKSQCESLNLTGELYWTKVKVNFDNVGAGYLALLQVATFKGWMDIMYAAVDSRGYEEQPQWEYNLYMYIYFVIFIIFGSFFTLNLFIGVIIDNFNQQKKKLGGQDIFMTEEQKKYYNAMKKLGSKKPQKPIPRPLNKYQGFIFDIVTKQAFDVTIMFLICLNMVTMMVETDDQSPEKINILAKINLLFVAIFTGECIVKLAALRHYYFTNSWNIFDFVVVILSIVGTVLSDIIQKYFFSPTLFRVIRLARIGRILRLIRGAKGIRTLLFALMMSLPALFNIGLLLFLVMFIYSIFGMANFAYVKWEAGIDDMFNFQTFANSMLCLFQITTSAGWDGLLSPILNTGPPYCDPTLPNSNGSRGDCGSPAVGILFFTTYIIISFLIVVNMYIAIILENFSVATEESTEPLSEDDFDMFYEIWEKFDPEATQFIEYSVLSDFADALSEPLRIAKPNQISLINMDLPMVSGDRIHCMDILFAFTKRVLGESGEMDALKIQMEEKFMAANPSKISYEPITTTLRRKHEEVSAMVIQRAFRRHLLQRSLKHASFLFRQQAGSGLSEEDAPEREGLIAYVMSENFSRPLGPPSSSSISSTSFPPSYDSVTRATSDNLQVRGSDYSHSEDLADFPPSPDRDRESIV

## COc1ccccc1Nc1nc(C)c(C(=O)N[C@H]2CCC[C@@H]2OCc2ccccc2)s1 [Compound 68, 2-(2-methoxy-phenylamino)-4-methyl-thiazole-5-carboxylic acid (1S,2S)-2-(benzyloxycyclopent-1-yl) amide]
Kv1.5; 10 μM, n = 3 cells, derived from subtracting the remaining current from the end of pulse current amplitude
  Block at 10 μM in %: Kv1.5 (calculated): 81.1 ± 3.7%
Kv1.5; dose-response analysis, Kv1.5 derived from subtracting the remaining current from the end of pulse current amplitude
  IC50: 1400 nM
INa (SCN5a)
  Block at 10 μM in %: INa (SCN5a): 0 ± 0.5%

Reference: patent publication US20080125432A1 (Devgen NV, priority 2004, published 2008)
